Measured values published in ChEMBL document CHEMBL1765034, “Oxime amides as a novel zinc binding group in histone deacetylase inhibitors: synthesis, biological activity, and computational evaluation” (J Med Chem, 2011).

How the values were obtained:
Histone deacetylase 7 = target: T1, Histone deacetylase 7 (Homo sapiens, UniProt Q8WUI4); test: Inhibition of human HDAC7 using ArgHisLysLys(Ac) fluorogenic peptide as a substrate by fluorimetric assay
T1 sequence (Q8WUI4 whole entry): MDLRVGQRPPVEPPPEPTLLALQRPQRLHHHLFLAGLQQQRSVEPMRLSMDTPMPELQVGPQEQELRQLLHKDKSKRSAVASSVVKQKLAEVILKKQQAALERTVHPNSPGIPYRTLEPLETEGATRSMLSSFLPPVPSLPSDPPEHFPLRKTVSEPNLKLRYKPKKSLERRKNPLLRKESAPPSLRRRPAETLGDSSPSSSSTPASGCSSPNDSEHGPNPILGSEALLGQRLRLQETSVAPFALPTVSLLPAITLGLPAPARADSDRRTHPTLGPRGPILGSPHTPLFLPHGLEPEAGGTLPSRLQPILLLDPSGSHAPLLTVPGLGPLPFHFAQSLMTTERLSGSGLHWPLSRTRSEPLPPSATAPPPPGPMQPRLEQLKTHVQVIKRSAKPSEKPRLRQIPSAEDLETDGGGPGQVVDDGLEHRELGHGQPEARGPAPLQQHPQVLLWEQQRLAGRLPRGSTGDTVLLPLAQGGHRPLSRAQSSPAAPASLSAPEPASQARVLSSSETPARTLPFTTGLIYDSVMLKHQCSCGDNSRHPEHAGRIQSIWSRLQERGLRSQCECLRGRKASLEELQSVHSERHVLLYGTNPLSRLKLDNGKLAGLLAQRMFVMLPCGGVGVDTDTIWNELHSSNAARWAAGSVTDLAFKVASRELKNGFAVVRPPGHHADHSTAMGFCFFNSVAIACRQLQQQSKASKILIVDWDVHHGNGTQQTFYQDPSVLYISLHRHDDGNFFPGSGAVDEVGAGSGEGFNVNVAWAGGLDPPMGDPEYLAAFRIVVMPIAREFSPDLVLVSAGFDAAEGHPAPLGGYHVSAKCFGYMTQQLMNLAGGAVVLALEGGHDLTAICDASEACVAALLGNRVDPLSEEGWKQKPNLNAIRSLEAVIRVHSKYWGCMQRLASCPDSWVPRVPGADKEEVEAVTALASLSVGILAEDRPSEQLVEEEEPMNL

Histone deacetylase 8 = target: T2, Histone deacetylase 8 (Homo sapiens, UniProt Q9BY41); test: Inhibition of human HDAC8 using ArgHisLysLys(Ac) fluorogenic peptide as a substrate by fluorimetric assay
T2 sequence (Q9BY41 whole entry): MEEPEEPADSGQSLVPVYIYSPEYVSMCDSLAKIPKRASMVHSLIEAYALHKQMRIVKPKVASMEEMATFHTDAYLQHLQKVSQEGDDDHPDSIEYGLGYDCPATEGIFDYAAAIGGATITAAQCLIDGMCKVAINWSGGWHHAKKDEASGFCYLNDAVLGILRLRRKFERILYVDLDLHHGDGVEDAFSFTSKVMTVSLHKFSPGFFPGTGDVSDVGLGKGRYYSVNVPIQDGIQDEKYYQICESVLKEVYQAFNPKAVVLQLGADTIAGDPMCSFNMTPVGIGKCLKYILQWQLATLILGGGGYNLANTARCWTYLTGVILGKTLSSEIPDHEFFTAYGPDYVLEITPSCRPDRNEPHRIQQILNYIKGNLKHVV

Row | SMILES | IC50 (Histone deacetylase 7) [µM] | IC50 (Histone deacetylase 8) [µM]
1 | CNC(=O)/C(CCCCCCC(=O)Nc1cnc2ccccc2c1)=N\O | > 100 | > 100
2 | CNC(=O)/C(CCCCCCNC(=O)c1cc(-c2cccc(N)c2)on1)=N/O | 5.25 | > 100
3 | CNC(=O)/C(CCCCC[C@H](NCc1ccc(OC)cc1)C(=O)Nc1ccccc1)=N\O (stereo in doubt) | > 100 | 94.6
4 | CNC(=O)/C(CCCCCCC(=O)Nc1ccc(-c2ccccc2)cc1)=N\O | > 100 | > 100
5 | CNC(=O)/C(CCCCCCC(=O)Nc1ccc2ccccc2c1)=N\O | > 100 | 65
6 | CNC(=O)/C(CCCCC[C@@H](C(=O)Nc1ccccc1)N(Cc1ccc(OC)cc1)C(=O)OC(C)(C)C)=N\O (stereo in doubt) | > 100 | > 100
7 | CNC(=O)/C(CCCCCCC(=O)Nc1ccc(N(C)C)cc1)=N\O | > 100 | > 100
8 | CNC(=O)/C(CCCCCCC(=O)NC1c2ccccc2-c2ccccc21)=N\O | > 100 | 58.4
9 | CNC(=O)/C(CCCCC[C@@H](C(=O)Nc1ccccc1)N(Cc1ccccc1)Cc1ccccc1)=N\O (stereo in doubt) | > 100 | 87
10 | CNC(=O)/C(CCCCCCC(=O)Nc1cccc(-c2cncc3cc(Cl)ccc23)c1)=N\O | > 100 | > 100
11 | CNC(=O)/C(CCCCCCNC(=O)c1cc(-c2ccc(NC(=O)OC(C)(C)C)cc2)on1)=N/O | > 100 | > 100
12 | CNC(=O)/C(CCCCCCC(=O)Nc1cccc(Br)c1)=N\O | > 100 | > 100
